{"source": "paper PMC5325384", "about": "“Novel synthetic cyclic integrin αvβ3 binding peptide ALOS4: antitumor activity in mouse melanoma models” (Oncotarget, 2016)", "key": {"[1]": {"system": "B16F10 mouse melanoma cells", "experiment": "Immunofluorescence microscopy of cell binding and uptake", "type": "cell-based", "details": "10 μM ALOS4-FITC, 37°C, confocal microscopy", "method": "Poly-L-lysine (1 h, 37°C; cat# P8920, Sigma-Aldrich) coated slides (cat# PEZGS0816, Merck) were washed 2x with PBS (pH 7.4), 1.5×10^4 B16F10 cells per well were seeded in RPMI (10% FCS) and allowed to incubate overnight (37°C, 5% CO2). ALOS4-FITC (10 μM) was added to slide wells up to 60 min (37°C, 5% CO2), then cells were fixed in paraformaldehyde (4%, 10 min). Following PBS washes (2x) and removal of excess buffer, cells were stained with a mounting medium containing DAPI (cat# H-1500, Vector Laboratories, Burlingame, CA). Slides were imaged by confocal microscopy."}, "[2]": {"experiment": "Weight of non-inoculated mice under daily treatment", "type": "in vivo, mouse", "details": "16-week old C57BL/6, 0.3 mg/kg i.p. daily for 28 days; data not shown"}, "integrin αvβ3 [3]": {"biological_target": "T1, integrin αvβ3 (Homo sapiens, UniProt P06756)", "T1 chain 1": "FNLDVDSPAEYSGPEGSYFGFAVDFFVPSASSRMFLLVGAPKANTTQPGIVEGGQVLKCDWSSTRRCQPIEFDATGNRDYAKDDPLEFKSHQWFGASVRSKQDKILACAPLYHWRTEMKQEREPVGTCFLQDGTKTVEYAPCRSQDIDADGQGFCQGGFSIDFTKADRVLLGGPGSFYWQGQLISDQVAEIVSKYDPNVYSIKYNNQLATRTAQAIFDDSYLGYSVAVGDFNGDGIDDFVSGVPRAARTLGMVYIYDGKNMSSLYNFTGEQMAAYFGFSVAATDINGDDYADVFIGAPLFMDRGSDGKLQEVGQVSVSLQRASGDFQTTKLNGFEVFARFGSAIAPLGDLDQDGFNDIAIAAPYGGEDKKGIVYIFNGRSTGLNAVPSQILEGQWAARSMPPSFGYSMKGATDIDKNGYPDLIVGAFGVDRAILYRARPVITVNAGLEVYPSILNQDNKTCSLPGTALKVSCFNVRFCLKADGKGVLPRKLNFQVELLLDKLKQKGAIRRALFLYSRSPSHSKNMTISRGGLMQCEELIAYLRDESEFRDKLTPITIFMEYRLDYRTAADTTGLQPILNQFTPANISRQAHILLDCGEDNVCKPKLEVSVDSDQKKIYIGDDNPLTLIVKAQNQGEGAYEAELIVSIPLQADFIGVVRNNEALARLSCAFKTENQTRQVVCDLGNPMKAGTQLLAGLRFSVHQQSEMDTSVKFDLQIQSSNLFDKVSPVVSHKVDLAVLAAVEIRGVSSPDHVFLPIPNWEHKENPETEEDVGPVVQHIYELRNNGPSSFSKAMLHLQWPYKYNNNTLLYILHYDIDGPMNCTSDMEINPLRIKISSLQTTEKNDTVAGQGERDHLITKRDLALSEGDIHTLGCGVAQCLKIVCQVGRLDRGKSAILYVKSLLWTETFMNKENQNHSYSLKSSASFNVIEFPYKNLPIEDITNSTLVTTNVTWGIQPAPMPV", "T1 chain 2": "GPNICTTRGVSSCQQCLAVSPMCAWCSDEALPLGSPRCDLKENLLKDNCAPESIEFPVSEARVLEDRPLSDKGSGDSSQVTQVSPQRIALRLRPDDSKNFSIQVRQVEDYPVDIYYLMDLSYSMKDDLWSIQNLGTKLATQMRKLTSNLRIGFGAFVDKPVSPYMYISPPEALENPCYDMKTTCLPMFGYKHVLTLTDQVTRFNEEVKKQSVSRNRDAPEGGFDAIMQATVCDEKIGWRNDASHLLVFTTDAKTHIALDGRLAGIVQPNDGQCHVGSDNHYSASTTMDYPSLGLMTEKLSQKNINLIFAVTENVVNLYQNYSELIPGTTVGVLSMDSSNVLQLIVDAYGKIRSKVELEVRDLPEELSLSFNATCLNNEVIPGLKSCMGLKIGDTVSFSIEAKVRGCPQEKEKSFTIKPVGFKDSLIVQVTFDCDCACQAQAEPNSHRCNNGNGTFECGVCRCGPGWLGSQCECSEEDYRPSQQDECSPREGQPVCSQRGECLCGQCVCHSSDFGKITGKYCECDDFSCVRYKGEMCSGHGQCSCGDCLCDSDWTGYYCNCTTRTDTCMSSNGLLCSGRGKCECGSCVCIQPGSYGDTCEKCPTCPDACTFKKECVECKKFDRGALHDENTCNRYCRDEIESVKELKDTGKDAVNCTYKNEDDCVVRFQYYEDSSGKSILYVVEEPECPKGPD", "experiment": "fluorescence competition binding assay with ALOS4-FITC"}, "integrin αvβ3 [4]": {"biological_target": "T1, integrin αvβ3", "experiment": "fluorescence plate saturation binding assay"}}, "note": "Where a SMILES comes first, the peptide text is derived from it. Bridges are numbered along the chain shown (N, C = ends). Where no end group is shown, it is not given here. The star is where a group is joined. FITC = O=C1OC2(c3ccc(O)cc3Oc3cc(O)ccc32)c2ccc(NC(=S)*)cc21; GABA = NCCCC(=O)O"}
{"molecule": "CC(C)C[C@@H]1NC(=O)[C@H](CO)NC(=O)CNC(=O)[C@H](C)NC(=O)[C@H](CO)NC(=O)[C@H](CO)NC(=O)[C@@H](NC(=O)CCCNC(=S)Nc2ccc3c(c2)C(=O)OC32c3ccc(O)cc3Oc3cc(O)ccc32)CSSC[C@@H](C(=O)O)NC(=O)[C@H](Cc2ccccc2)NC1=O", "note": "[ALOS4-FITC] ({FITC-GABA}-CSSAGSLFC-OH; disulfide 1-9)", "values": [{"measurement": "association with cells, 10 min", "setting": "[1]; 10 min", "result": "rapidly adheres to the cell surface"}, {"measurement": "translocation into cells, 30 min", "setting": "[1]; 30 min", "result": "appears to translocate quickly to the cell cytoplasm"}, {"measurement": "intracellular localization, 60 min", "setting": "[1]; up to 60 min", "result": "a majority of ALOS4-FITC migrated to the nuclear envelope and/or surrounding endoplasmic reticular membranes"}]}
{"molecule": "CC(C)C[C@@H]1NC(=O)[C@H](CO)NC(=O)CNC(=O)[C@H](C)NC(=O)[C@H](CO)NC(=O)[C@H](CO)NC(=O)[C@@H](N)CSSC[C@@H](C(=O)O)NC(=O)[C@H](Cc2ccccc2)NC1=O", "note": "[ALOS4] (H-CSSAGSLFC-OH; disulfide 1-9)", "values": [{"measurement": "effect on animal weight, non-inoculated mice", "setting": "[2]", "result": "did not have any effect on animal weight"}]}
{"molecule": "CSSAGSLFC (disulfide 1-9 (inferred))", "note": "[ALOS4]", "values": [{"measurement": "Kd", "setting": "integrin αvβ3 [3]", "result": 2.55, "unit": "µM"}]}
{"molecule": "{FITC-ε‑Acp}-CSSAGSLFC (disulfide 1-9 (inferred))", "note": "[ALOS4-FITC]", "values": [{"measurement": "Kd", "setting": "integrin αvβ3 [4]", "result": 0.192, "unit": "µM"}]}
